Test results: publication PMC6680717, “Design, Synthesis and Biological Evaluation of Novel Coumarin-Based Hydroxamate Derivatives as Histone Deacetylase (Hdac) Inhibitors with Antitumor Activities” (Molecules, 2019)
Each block holds one compound with its values, some of them ahead of it.

How the values were obtained:
recombinant HDAC1 = molecular target: T1, recombinant HDAC1 (Homo sapiens, UniProt Q13547); experiment: HDAC1 inhibitory assay (protease-coupled, Ac-peptide-AMC fluorescence); assay type: biochemical; conditions: for IC50: recombinant HDAC1, n ≥ 3; for times greater potency than SAHA, HDAC1: ratio of IC50 versus SAHA
T1 construct: purchased BPS Biosciences
T1 sequence (Q13547 whole entry): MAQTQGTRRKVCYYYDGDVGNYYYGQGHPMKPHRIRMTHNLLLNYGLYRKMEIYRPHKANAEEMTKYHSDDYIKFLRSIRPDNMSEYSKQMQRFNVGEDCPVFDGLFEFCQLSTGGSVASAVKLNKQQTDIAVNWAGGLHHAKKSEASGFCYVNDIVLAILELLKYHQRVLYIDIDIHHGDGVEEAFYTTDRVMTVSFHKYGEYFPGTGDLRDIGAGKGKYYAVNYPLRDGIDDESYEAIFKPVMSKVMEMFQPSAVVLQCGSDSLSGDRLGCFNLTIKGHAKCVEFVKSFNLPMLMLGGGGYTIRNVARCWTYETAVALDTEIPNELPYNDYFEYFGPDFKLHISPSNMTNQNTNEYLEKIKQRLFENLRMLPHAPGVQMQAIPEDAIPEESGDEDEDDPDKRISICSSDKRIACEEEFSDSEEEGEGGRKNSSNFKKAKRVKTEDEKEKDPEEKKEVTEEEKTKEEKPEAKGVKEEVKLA
Experimental: The HDAC1 enzyme activity in vitro was determined by the protease-coupled assay. Different concentrations of compounds were incubated with recombinant HDAC1 (BPS Biosciences, San Diego, CA, USA) at room temperature for 15 min, followed by adding trypsin, as well as Ac-peptide-AMC substrates, to initiate the reaction in a Tris-based assay buffer. […] The IC50 values were calculated by GraphPad Prism software (La Jolla, CA, USA). (for details see Supplementary Materials)

HDAC6 = molecular target: T2, HDAC6 (Homo sapiens, UniProt Q9UBN7); experiment: HDAC isoform inhibition assay, HDAC6
T2 sequence (Q9UBN7 1-1215): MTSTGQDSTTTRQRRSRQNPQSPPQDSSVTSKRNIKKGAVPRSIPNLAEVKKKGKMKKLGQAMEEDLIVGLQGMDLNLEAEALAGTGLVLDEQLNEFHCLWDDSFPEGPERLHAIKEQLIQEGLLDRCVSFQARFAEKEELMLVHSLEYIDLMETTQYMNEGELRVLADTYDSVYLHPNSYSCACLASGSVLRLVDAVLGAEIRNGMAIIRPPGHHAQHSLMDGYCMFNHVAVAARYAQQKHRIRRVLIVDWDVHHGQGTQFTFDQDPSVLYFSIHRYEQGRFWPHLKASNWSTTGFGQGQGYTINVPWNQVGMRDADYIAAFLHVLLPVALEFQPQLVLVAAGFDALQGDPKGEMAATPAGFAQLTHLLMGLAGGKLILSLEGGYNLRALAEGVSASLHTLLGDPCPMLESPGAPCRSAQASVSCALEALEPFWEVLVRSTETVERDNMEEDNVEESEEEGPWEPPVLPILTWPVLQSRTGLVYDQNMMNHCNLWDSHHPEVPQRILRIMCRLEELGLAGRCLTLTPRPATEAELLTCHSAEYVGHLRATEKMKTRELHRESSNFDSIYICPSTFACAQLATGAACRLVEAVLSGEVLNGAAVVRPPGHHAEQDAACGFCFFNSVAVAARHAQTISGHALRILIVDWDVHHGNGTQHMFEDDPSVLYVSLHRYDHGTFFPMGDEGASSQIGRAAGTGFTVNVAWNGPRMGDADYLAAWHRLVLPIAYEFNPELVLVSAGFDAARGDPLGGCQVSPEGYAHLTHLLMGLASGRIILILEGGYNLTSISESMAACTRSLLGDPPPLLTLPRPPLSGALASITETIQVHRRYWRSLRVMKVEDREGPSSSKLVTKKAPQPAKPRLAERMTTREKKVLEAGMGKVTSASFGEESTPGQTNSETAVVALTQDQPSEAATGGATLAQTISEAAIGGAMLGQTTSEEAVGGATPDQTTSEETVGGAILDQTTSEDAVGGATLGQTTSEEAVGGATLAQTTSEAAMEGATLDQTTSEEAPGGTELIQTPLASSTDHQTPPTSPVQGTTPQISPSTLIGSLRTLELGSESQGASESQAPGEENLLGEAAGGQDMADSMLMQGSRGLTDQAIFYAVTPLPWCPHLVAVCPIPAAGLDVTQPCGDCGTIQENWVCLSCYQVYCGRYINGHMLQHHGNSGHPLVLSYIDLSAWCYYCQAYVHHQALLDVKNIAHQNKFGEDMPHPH

A549 cells [1] = experiment: Cell apoptosis analysis (annexin V FITC/PI, flow cytometry); conditions: 72 h
Experimental: The cell apoptosis analysis was measured by annexin V FITC/PI assay using the Vybrant Apoptosis Assay kit (Invitrogen, Carlsbad, CA, USA). […] After staining, 400 μL of 1X annexin-binding buffer was added, mixed gently and kept on ice. The samples were measured using a BD Biosciences FACS Aria flow cytometer.

HDAC2 = HDAC2 (Homo sapiens, UniProt Q92769); experiment: HDAC isoform inhibition assay, HDAC2
HDAC2, sequence (Q92769 whole entry, canonical isoform): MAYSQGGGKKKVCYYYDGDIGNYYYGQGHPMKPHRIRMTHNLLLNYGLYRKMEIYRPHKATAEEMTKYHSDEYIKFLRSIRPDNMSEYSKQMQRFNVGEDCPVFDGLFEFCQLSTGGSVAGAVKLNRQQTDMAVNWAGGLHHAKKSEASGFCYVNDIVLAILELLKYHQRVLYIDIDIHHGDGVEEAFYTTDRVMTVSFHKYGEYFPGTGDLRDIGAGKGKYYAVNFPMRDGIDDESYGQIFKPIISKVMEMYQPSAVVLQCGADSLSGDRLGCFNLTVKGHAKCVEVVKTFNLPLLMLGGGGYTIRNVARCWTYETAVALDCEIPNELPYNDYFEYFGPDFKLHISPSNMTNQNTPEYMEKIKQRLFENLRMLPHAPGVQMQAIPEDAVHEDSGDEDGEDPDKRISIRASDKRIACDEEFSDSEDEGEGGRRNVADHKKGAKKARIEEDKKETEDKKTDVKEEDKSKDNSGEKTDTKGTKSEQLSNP

HDAC11 = molecular target: T3, HDAC11 (Homo sapiens, UniProt Q96DB2); experiment: HDAC isoform inhibition assay, HDAC11
T3 sequence (Q96DB2 1-347): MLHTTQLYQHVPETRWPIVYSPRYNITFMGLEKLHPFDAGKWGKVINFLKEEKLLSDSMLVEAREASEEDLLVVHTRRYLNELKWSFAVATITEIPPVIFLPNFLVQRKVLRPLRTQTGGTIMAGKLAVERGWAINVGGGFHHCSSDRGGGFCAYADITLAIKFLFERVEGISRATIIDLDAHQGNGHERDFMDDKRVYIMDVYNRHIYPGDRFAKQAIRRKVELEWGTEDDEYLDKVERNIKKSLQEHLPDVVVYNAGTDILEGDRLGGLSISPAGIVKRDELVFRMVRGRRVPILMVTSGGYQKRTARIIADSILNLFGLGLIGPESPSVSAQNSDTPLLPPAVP

HDAC8 = molecular target: T4, HDAC8 (Homo sapiens, UniProt Q9BY41); experiment: HDAC isoform inhibition assay, HDAC8; conditions: for times greater potency than SAHA, HDAC8: ratio of IC50 versus SAHA
T4 sequence (Q9BY41 1-377): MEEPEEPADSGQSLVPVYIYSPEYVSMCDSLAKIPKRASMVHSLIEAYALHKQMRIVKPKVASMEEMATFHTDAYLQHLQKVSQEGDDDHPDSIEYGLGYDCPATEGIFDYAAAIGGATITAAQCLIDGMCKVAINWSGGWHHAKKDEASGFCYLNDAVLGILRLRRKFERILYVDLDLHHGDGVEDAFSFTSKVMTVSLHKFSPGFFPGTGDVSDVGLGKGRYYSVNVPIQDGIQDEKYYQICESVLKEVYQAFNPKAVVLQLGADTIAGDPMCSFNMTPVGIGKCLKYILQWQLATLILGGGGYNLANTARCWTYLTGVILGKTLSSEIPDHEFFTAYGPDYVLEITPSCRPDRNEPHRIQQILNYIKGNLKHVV

[2] = tested on: acetylated histone H3 and H4; experiment: Western blot of acetylated histone levels in A549 cells; conditions: A549 cells, 0.2, 0.5 and 1.0 μM, 48 h
Experimental: The levels of acetylated histone H3 and H4 were analyzed by Western blotting assays with β–actin as the negative control. […] Briefly, human cancer cells were lysed in a lysis buffer (50 mM Tris-HCl pH 8.0, 5 mM EDTA, 100 mM NaCl, 0.5% NP-40, 1 mM PMSF), centrifuged for 10 min at 10,000 g, and the insoluble debris were discarded. Cell lysates were further analyzed with SDS-PAGE and western blotting with the indicated antibodies.

A549 cells [3] = experiment: In vitro anti-proliferation assay (MTT), A549; assay type: cell-based; conditions: Homo sapiens, 48 h, read-out: Anti-proliferative activity IC50, A549
Experimental: (§1) The in vitro anti-proliferation assay was operated as previously described. In brief, the human cancer cell lines, A549, HeLa and HepG2, were seeded into 96-well plates at the appropriate cell densities. After incubation for 24 h, the cells were treated with various concentrations of tested compounds for 48 h. Then, the 3–(4,5–dimethyl–2-thiazolyl)–2,5–diphenyl–2–H–tetrazolium bromide (MTT) solution was added and co-incubated for another 4 h. The reactions were stopped by the addition of DMSO solution, and the samples were measured at 490 nm by a microplate spectrophotometer (Thermo Fisher Scientific, Waltham, MA USA). The IC50 was calculated using GraphPad Software. Three independent experiments were carried out in triplicate. (for details see Supplementary Materials)

HepG2 cells = experiment: In vitro anti-proliferation assay (MTT), HepG2; assay type: cell-based; conditions: Homo sapiens, 48 h, read-out: Anti-proliferative activity IC50, HepG2
Experimental: as §1

HDAC5 = HDAC5 (Homo sapiens, UniProt Q9UQL6); experiment: HDAC isoform inhibition assay, HDAC5
HDAC5, sequence (Q9UQL6 whole entry, canonical isoform): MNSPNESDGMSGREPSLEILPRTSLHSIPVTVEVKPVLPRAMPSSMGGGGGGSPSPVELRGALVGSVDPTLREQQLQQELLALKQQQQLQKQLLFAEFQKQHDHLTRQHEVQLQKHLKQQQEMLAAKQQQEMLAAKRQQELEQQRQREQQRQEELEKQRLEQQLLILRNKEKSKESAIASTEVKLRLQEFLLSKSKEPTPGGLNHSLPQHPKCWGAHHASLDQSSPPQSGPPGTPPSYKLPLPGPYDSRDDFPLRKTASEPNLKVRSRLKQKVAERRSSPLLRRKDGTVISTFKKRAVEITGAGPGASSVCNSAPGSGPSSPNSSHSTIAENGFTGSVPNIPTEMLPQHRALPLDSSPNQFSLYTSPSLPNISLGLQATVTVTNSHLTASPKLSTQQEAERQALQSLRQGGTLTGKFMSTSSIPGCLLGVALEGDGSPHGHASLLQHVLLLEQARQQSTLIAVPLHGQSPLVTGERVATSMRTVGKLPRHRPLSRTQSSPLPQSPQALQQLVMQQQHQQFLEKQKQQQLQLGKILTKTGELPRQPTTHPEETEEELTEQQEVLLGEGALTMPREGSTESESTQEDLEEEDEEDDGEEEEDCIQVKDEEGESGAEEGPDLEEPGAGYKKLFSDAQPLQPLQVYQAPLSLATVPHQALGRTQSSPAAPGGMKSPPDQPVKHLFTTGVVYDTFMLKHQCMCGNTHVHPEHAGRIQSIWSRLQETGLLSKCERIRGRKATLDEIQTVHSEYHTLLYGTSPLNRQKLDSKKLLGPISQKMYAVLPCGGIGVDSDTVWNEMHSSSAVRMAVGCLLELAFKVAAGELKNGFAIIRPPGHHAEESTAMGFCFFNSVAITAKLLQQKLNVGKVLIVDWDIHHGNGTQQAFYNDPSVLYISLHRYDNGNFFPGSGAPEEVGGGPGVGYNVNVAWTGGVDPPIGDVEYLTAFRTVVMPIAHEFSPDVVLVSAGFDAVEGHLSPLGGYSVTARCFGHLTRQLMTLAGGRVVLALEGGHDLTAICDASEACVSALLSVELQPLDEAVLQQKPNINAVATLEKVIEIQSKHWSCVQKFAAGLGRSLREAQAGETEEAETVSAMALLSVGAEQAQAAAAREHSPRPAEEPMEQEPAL

A549 cells [4] = experiment: Cell cycle analysis (PI, flow cytometry); assay type: cell-based, human; conditions: 24 h, result in words
Experimental: Next, we investigated whether the potent anti-proliferative activity of 10e and 11d resulted from the induction of the cell cycle arrest. […] This was evidenced by the increasing percentages of cells in the G2/M phase, accompanied by a proportionate reduction in other phases of the cell cycle.
The cell cycle analysis was carried out by estimating the DNA contents with flow cytometry. After incubation with the indicated doses of 10e or 11d for 24 h, A549 cells were fixed in 70% ice-cold ethanol, incubated overnight at –20 °C, stained with propidium iodide (PI)/Triton X-100 containing RNaseA solution for 20 min at 37 °C, and then analyzed by FACS.

Hela cells = experiment: In vitro anti-proliferation assay (MTT), Hela; assay type: cell-based; conditions: Homo sapiens, 48 h, read-out: Anti-proliferative activity IC50, Hela
Experimental: as §1

HDAC4 = HDAC4 (Homo sapiens, UniProt P56524); experiment: HDAC isoform inhibition assay, HDAC4
HDAC4, sequence (P56524 whole entry, canonical isoform): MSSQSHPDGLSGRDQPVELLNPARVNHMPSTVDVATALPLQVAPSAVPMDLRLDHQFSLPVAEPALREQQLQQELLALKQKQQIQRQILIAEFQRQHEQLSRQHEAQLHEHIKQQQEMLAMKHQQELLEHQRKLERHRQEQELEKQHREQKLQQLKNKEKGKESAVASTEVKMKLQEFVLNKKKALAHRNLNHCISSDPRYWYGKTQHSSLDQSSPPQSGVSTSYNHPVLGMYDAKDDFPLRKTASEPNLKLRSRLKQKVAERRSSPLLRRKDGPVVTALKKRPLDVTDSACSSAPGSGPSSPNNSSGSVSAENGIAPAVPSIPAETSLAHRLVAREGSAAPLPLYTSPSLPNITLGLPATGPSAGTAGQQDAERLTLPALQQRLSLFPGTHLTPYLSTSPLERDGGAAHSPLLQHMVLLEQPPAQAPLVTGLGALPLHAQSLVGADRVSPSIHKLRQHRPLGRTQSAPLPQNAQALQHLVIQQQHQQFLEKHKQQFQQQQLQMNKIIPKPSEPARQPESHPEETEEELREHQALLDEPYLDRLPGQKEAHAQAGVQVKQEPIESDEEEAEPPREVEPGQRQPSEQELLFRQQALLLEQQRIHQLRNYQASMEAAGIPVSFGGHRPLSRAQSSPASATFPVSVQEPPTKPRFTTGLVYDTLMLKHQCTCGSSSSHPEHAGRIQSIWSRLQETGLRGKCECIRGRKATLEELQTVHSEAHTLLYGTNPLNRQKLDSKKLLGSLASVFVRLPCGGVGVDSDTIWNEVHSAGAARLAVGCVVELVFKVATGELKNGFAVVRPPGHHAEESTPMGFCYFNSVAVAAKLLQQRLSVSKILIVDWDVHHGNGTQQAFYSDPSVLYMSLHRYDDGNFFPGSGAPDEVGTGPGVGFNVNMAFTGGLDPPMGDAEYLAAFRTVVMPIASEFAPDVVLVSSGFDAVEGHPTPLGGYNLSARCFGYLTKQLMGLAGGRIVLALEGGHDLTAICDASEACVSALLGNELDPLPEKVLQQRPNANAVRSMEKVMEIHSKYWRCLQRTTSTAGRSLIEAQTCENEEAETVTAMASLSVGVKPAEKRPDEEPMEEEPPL

- IC50 (recombinant HDAC1): > 100 nM
SMILES: O=C(CCNc1cc(=O)oc2ccccc12)NO [Compound 10a, N–hydroxy–3–((2–oxo–2H–chromen–4–yl)amino)propanamide]

- IC50 (recombinant HDAC1): 9.11 ± 0.2 nM
SMILES: O=C(CCCCCNc1cc(=O)oc2ccccc12)NO [Compound 10b, N–hydroxy–6–((2–oxo–2H–chromen–4–yl)amino)hexanamide]

- IC50 (recombinant HDAC1): 6.43 ± 0.16 nM
SMILES: COc1ccc2c(NCCCCCC(=O)NO)cc(=O)oc2c1 [Compound 10c, N–hydroxy–6–((7–methoxy–2–oxo–2H–chromen–4–yl)amino)hexanamide]

- IC50 (recombinant HDAC1): 2.51 ± 0.12 nM
SMILES: COc1ccc2c(NCCCCCCC(=O)NO)cc(=O)oc2c1 [Compound 10d, N–hydroxy–7–((7–methoxy–2–oxo–2H–chromen–4–yl)amino)heptanamide]

- IC50 (HDAC6): 5.4 ± 1 nM
- IC50 (HDAC2): 0.68 ± 0.05 nM
- times greater potency than SAHA, HDAC2 (HDAC2; ratio of IC50 versus SAHA): ~27 times
- IC50 (HDAC11): > 1000 nM
- IC50 (HDAC8): 16.9 ± 0.01 nM
- times greater potency than SAHA, HDAC8 (HDAC8): ~12 times
- IC50 (A549 cells [3]): 1960 ± 740 nM
- IC50 (HepG2 cells): > 10000 nM
- IC50 (HDAC5): > 1000 nM
- IC50 (Hela cells): 1310 ± 860 nM
- IC50 (recombinant HDAC1): 0.24 ± 0.01 nM
- IC50 (HDAC4): > 1000 nM
SMILES: COc1ccc2c(NCCCCCCCC(=O)NO)cc(=O)oc2c1 [Compound 10e, N–hydroxy–8–((7–methoxy–2–oxo–2H–chromen–4–yl)amino)octanamide]
- apoptosis induced in A549 cancer cells (A549 cells [1]; 1.25 μM): 51.9%
- apoptosis induced in A549 cancer cells (A549 cells [1]; 2.5 μM): 84.4%
- apoptosis induced in A549 cancer cells (A549 cells [1]; 5 μM): 90.3%
- expression of acetylated histone H3 and H4 [2]: increase the expression of acetylated histone H3 and H4 in a dose-dependent manner
- cell cycle arrest in A549 cells (A549 cells [4]): significant induction of the G2/M phase cell cycle arrest in a concentration-dependent manner

- IC50 (recombinant HDAC1): > 100 nM
SMILES: COc1ccc2c(OCCCCC(=O)NO)cc(=O)oc2c1 [Compound 11a, N–hydroxy–5–((7–methoxy–2–oxo–2H–chromen–4–yl)oxy)pentanamide]

- IC50 (recombinant HDAC1): 19.4 ± 2.21 nM
SMILES: COc1ccc2c(OCCCCCC(=O)NO)cc(=O)oc2c1 [Compound 11b, N–hydroxy–6–((7–methoxy–2–oxo–2H–chromen–4–yl)oxy)hexanamide]

- IC50 (recombinant HDAC1): 5.61 ± 0.56 nM
SMILES: COc1ccc2c(OCCCCCCC(=O)NO)cc(=O)oc2c1 [Compound 11c, N–hydroxy–7–((7–methoxy–2–oxo–2H–chromen–4–yl)oxy)heptanamide]

SMILES: COc1ccc2c(OCCCCCCCC(=O)NO)cc(=O)oc2c1 [Compound 11d, N–hydroxy–8–((7–methoxy–2–oxo–2H–chromen–4–yl)oxy)octanamide]
- IC50 (HDAC6): 5.67 ± 1.42 nM
- apoptosis induced in A549 cancer cells (A549 cells [1]; 1.25 μM): 81.7%
- apoptosis induced in A549 cancer cells (A549 cells [1]; 2.5 μM): 87.2%
- apoptosis induced in A549 cancer cells (A549 cells [1]; 5 μM): 91.4%
- IC50 (HDAC2): < 0.32 nM
- IC50 (HDAC11): > 1000 nM
- IC50 (HDAC8): 1.85 ± 0.14 nM
- times greater potency than SAHA, HDAC8 (HDAC8): ~107 times
- expression of acetylated histone H3 and H4 [2]: increase the expression of acetylated histone H3 and H4 in a dose-dependent manner
- IC50 (A549 cells [3]): 560 ± 280 nM
- IC50 (HepG2 cells): 7710 ± 2070 nM
- IC50 (HDAC5): > 1000 nM
- cell cycle arrest in A549 cells (A549 cells [4]): significant induction of the G2/M phase cell cycle arrest in a concentration-dependent manner
- IC50 (Hela cells): 2620 ± 1530 nM
- IC50 (HDAC4): > 1000 nM

- IC50 (recombinant HDAC1): 7.33 ± 1.01 nM
SMILES: COc1ccc2c(OCCCCCCCCC(=O)NO)cc(=O)oc2c1 [Compound 11e, N–hydroxy–9–((7–methoxy–2–oxo–2H–chromen–4–yl)oxy)nonanamide]

- times greater potency than SAHA, HDAC1 (recombinant HDAC1): approximately three
- IC50 (recombinant HDAC1): 8.72 ± 1.03 nM
SMILES: O=C(CCCCCCCOc1ccc2ccc(=O)oc2c1)NO [Compound 12a, N–hydroxy–8–((2–oxo–2H–chromen–7–yl)oxy)octanamide]

- times greater potency than SAHA, HDAC1 (recombinant HDAC1): approximately three
- IC50 (recombinant HDAC1): 6.88 ± 0.85 nM
SMILES: Cc1cc(=O)oc2cc(OCCCCCCCC(=O)NO)ccc12 [Compound 12b, N–hydroxy–8–((4–methyl–2–oxo–2H–chromen–7–yl)oxy)octanamide]

SMILES: O=C(CCCCCCC(=O)Nc1ccccc1)NO [SAHA, vorinostat, reference compound]
- apoptosis induced in A549 cancer cells (A549 cells [1]; 1.25 μM): 27.6%
- apoptosis induced in A549 cancer cells (A549 cells [1]; 2.5 μM): 40.9%
- apoptosis induced in A549 cancer cells (A549 cells [1]; 5 μM): 61.4%
